Results on 8 compounds are retold here after patent publication US20240398962A1, “DENDRIMER-GLUTAMINE ANTAGONIST CONJUGATES AND METHODS OF USE THEREOF” (The Johns Hopkins University, priority 2021, published 2024).

Test system in the first series: not listed separately
The series is described as follows: Liver homogenate stability (compound disappearance by LC-MS/MS). Format: in vitro ADME. As to conditions: 20 μm, 37° C. The procedure: Liver or EL4 lymphoma tumor tissues were washed and diluted 10-fold in 0.1 M potassium phosphate buffer and homogenized using a probe sonicator. To evaluate the stability of the analogs 1 mL aliquots were made of each matrix and the analogs were spiked to a final assay concentration of 20 μm. Spiked samples were incubated in an orbital shaker at 37° C. for 1 h, following which reactions were quenched in triplicate with three volumes of acetonitrile containing the internal standard (IS; losartan: 0.5 μm). The samples were vortex-mixed for 30 s and centrifuged at 10 000 g for 10 min at 4° C. Fifty microliters of the supernatant was diluted with 50 μL of water and transferred to a 250 μL polypropylene vial sealed with a Teflon cap. Compound disappearance was monitored over time using liquid chromatography tandem mass spectrometry (LC-MS/MS).
With `CC(C)OC(=O)[C@H](CCC(=O)C=[N+]=[N-])NP(=O)(OCCCCN)Oc1ccccc1` (stereo partly drawn) [I, Isopropyl (2S)-2-(((4-aminobutoxy)(phenoxy)phosphoryl)amino)-6-diazo-5-oxohexanoate], the “Liver homogenate stability (% remaining at 1 h incubation)” value came out at 32%.
With `CC(C)C[C@H](NC(=O)COCCN)C(=O)N[C@@H](CCC(=O)C=[N+]=[N-])C(=O)OC(C)(C)C` [II, t-Butyl (S)-2-((S)-2-(2-(2-aminoethoxy)acetamido)-4-methylpentanamido)-6-diazo-5-oxohexanoate], the “Liver homogenate stability (% remaining at 1 h incubation)” value was found to be 94%.
In the case of `CC(C)C[C@H](NC(=O)CCOCCOCCN)C(=O)N[C@@H](CCC(=O)C=[N+]=[N-])C(=O)OC(C)(C)C` [III, t-Butyl (2S,5S)-15-amino-2-(4-diazo-3-oxobutyl)-5-isobutyl-4,7-dioxo-10,13-dioxa-3,6-diazapentadecanoate], the “Liver homogenate stability (% remaining at 1 h incubation)” value is listed as 79%.
As to `CC(C)C[C@H](NC(=O)CCOCCOCCN)C(=O)N[C@@H](CCC(=O)C=[N+]=[N-])C(=O)OC(C)C` [IV, Isopropyl (2S,5S)-15-amino-2-(4-diazo-3-oxobutyl)-5-isobutyl-4,7-dioxo-10,13-dioxa-3,6-diazapentadecanoate], the “Liver homogenate stability (% remaining at 1 h incubation)” value is given as 0%.
Same read-out and setting: the figure for `CC(C)C[C@H](NC(=O)COCCN)C(=O)N[C@@H](CCC(=O)C=[N+]=[N-])C(=O)OC(C)C` [V, Isopropyl (S)-2-((S)-2-(2-(2-aminoethoxy)acetamido)-4-methylpentanamido)-6-diazo-5-oxohexanoate] is 17%; for `CC(C)C[C@H](NC(=O)OCC1c2ccccc2-c2ccccc21)C(=O)N[C@@H](CCC(=O)C=[N+]=[N-])C(=O)N[C@@H](Cc1ccccc1)C(=O)NCCOCCOCCOCCOCCC(=O)O` [VI, (5S,8S,11S)-11-Benzyl-8-(4-diazo-3-oxobutyl)-1-(9H-fluoren-9-yl)-5-isobutyl-3,6,9,12-tetraoxo-2,16,19,22,25-pentaoxa-4,7,10,13-tetraazaoctacosane-28-oic acid] it is 12%; for `CC(C)C[C@H](NC(=O)OCC1c2ccccc2-c2ccccc21)C(=O)N[C@@H](CCC(=O)C=[N+]=[N-])C(=O)N[C@@H](Cc1ccccc1)C(=O)NCCOCCOCCOCCC(=O)O` [VII, (5S,8S,11S)-11-benzyl-8-(4-diazo-3-oxobutyl)-1-(9H-fluoren-9-yl)-5-isobutyl-3,6,9,12-tetraoxo-2,16,19,22-tetraoxa-4,7,10,13-tetraazapentacosan-25-oic acid] it is 0%.

In a further series the test system is glutaminase.
Experiment: not given
The note with it: cited from earlier work.
Consider `[N-]=[N+]=CC(=O)CC[C@H](N)C(=O)O` [DON, 6-diazo-5-oxo-L-norleucine], for which the “Inhibition of glutamine-utilizing enzymes including glutaminase” value is given as “low micromolar levels”.

Test system in a further series: not listed separately
In words: Stability of the prepared product on storage. The note with it: should be stored at −80° C. The format is physicochemical. The procedure:
Piperidine (1.00 mL, 10.3 mmol, 20 equiv.) was added and the reaction mixture was stirred at rt for 2 h. The solvent was evaporated and the residue was chromatographed on silica gel (CHCl3/MeOH 1:1+2% Et3N) to afford the desired product I (165 mg, 73%) as a yellowish oil. The prepared product I is very unstable and should be stored at −80° C.
Regarding `CC(C)OC(=O)[C@H](CCC(=O)C=[N+]=[N-])NP(=O)(OCCCCN)Oc1ccccc1` (stereo partly drawn) [I, Isopropyl (2S)-2-(((4-aminobutoxy)(phenoxy)phosphoryl)amino)-6-diazo-5-oxohexanoate], the “Stability of prepared product” value is “very unstable”.
